Tested on: normal dogs that were anesthetized
Assay: Hemodynamic and renal properties of intravenous LA-ANP versus ANP infusion in anesthetized normal dogs
Format: in vivo, dog
Settings: for urinary sodium excretion: baseline 47.0±18.9; for distal fractional sodium reabsorption: baseline 97.2±0.9
Protocol: Studies comparing LA-ANP to ANP were performed in normal dogs that were anesthetized. Equimolar concentrations of a low dose (2 pmol/kg/min) of LA-ANP and ANP were infused intravenously, where ANP was administered at a threshold concentration required to activate cyclic guanosine monophosphate. Equimolar concentrations of a high dose of LA-ANP and ANP (33 pmol/kg/min.) were also infused intravenously. Infusion of ANP or LA-ANP for 45 minutes was performed following a 30 minute baseline period, which was preceded by a 60 minute equilibrium period. Infusion was followed by a 30 minute wash-out period and three recovery (Rec) periods of 30 minutes each. Hemodynamic and renal parameters were measured at baseline (BL), during 45 minutes of infusion, and 120 minutes post-infusion.

[1] = low dose 2 pmol/kg/min i.v., at 120 minutes post-infusion
[2] = low dose 2 pmol/kg/min i.v., during infusion

CC[C@H](C)[C@@H]1NC(=O)[C@H](CCCNC(=N)N)NC(=O)[C@H](CC(=O)O)NC(=O)[C@H](CCSC)NC(=O)[C@H](CCCNC(=N)N)NC(=O)CNC(=O)CNC(=O)[C@H](Cc2ccccc2)NC(=O)[C@@H](NC(=O)[C@H](CO)NC(=O)[C@H](CO)NC(=O)[C@H](CCCNC(=N)N)NC(=O)[C@H](CCCNC(=N)N)NC(=O)[C@H](CC(C)C)NC(=O)[C@@H](N)CO)CSSC[C@@H](C(=O)N[C@@H](CC(N)=O)C(=O)N[C@@H](CO)C(=O)N[C@@H](Cc2ccccc2)C(=O)N[C@@H](CCCNC(=N)N)C(=O)N[C@@H](Cc2ccc(O)cc2)C(=O)O)NC(=O)CNC(=O)[C@H](CC(C)C)NC(=O)CNC(=O)[C@H](CO)NC(=O)[C@H](CCC(N)=O)NC(=O)[C@H](C)NC(=O)CNC1=O [ANP, reference compound]
natriuresis (in words) [1]: not increased
glomerular filtration rate (in words) [2]: No change
mean arterial pressure (in words) [2]: No change
natriuresis (in words) [2]: not increased
diuresis (in words) (low dose 2 pmol/kg/min i.v., with infusion): no significant change

SLRRSSCFGGRMDRIGAQSGLGCNSFRYRITA-REDKQGWA (SLRRSSCFGGRMDRIGAQSGLGCNSFRYRITAREDKQGWA; listed as Homo sapiens) [LA-ANP]
diuretic effect as compared to ANP (equimolar i.v. infusion): greater diuretic effect
natriuretic effect as compared to ANP (equimolar i.v. infusion): greater natriuretic effect
glomerular filtration rate, compared to high dose of ANP (high dose 33 pmol/kg/min i.v.): increased
mean arterial pressure, compared to high dose of ANP (high dose 33 pmol/kg/min i.v.): decreased
urinary sodium excretion (low dose 2 pmol/kg/min i.v., at 120 minutes post-infusion, p<0.01): 119.2±34.2 μEq/min.
distal fractional sodium reabsorption [1]: 95.3±0.9%
urinary sodium excretion (low dose 2 pmol/kg/min i.v., during 45 min infusion, p<0.01): 88.4±17.5 μEq/min.
glomerular filtration rate (in words) [2]: No change
mean arterial pressure (in words) [2]: No change
renal blood flow, compared to low dose ANP [2]: increased
diuresis (urine flow) (low dose 2 pmol/kg/min i.v., during infusion, baseline 0.34±0.08, p<0.01): 1.08 ± 0.23 mL/min
distal fractional sodium reabsorption [2]: 96.0±0.6%
distal fractional sodium reabsorption, overall, compared to low dose of ANP (low dose 2 pmol/kg/min i.v., p<0.01): significantly decreased

Reference: patent US8063191B2, “Polynucleotides encoding for fusion proteins with natriuresis activity” (Mayo Foundation for Medical Education and Research, priority 2005, dated 2011)
